Patent US20150344485A1, “BICYCLIC PYRIMIDONE COMPOUNDS AS INHIBITORS OF LP-PLA2” (GLAXOSMITHKLINE INTELLECTUAL PROPERTY DEVELOPMENT LIMITED, priority 2013, published 2015)
Like-named read-outs stand apart in the source and are kept apart here.

How the values were obtained:
Lp-PLA2 in human plasma = target: T1, Lp-PLA2 in human plasma (Homo sapiens, UniProt Q13093); assay: Lp-PLA2 human plasma assay (Thio-PAF assay); assay type: biochemical; details: pooled human plasma; read-out: pIC50 values in the thio-PAF assay (converted)
T1 construct: from tissue; host or cells: pooled human plasma
T1 sequence (Q13093 22-441): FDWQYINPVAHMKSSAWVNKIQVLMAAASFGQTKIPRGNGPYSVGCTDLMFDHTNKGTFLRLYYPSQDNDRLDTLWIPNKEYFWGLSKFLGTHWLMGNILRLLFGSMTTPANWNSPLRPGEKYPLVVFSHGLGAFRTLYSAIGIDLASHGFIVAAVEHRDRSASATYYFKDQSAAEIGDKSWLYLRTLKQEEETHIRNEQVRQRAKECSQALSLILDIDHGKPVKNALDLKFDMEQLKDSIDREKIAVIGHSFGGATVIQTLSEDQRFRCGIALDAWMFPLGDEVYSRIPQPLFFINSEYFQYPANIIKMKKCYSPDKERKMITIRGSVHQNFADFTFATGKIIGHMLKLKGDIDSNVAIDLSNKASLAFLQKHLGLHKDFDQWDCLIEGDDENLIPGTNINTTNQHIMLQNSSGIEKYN
Excerpt: The human plasma assay utilizes a thioester analog of PAF (phosphatidylcholine), where hydrolysis yields to the formation of a phospholipid containing a free thiol group. The amount of thiol is quantitated continuously by reacting with CPM (7-diethylamino-3-(4′-maleimidylphenyl)-4-methylcoumarin), a maleimide which increases in fluoresence after Michael addition of thiols. This assay may detect the activity of Lp-PLA2 in human plasma, as determined by specific inhibition by Lp-PLA2 inhibitors.
The thio-PAF assay was run as a quenched 15 μL assay. Compounds source plate was prepared by making 1:3 (by volume) serial dilution of the compounds into pure DMSO on 384-well microplate. 0.01 μL of compounds on compound source plate were transferred to 384 well Greiner 784076 (black) low-volume plates by ECHO liquid dispenser. 8 μL pooled human plasma, which was previously aliquoted and frozen, was added. Plates were centrifuged for 10 sec at 500 rpm. After 30 minutes preincubation, 2 μL of substrate solution comprising 2.5 mM 2-thio-PAF [from ethanol stock], 32 μM CPM [from a DMSO stock] and 3.2 mM NEM (N-ethylmaleimide) [made fresh daily in DMSO] in assay buffer of 50 mM HEPES, pH 7.4, 150 mM NaCl, 1 mM CHAPS was added to 384 well Greiner 784076 (black) low-volume plates by BRAVO liquid handling station. After 2 mins, reaction was quenched with 5 μL of 5% aqueous trifluoroacetic acid (TFA). Plates were covered to protect from light and incubated for 40 min at room temperature. Plates were read at ex: 380/em: 485 using-Envision microplate reader. pIC50 data, curve and QC analysis was conducted by using XLFit module in Excel.

[1] = target: T2, recombinant human Lp-PLA2 (Homo sapiens, UniProt Q13093); assay: Recombinant human Lp-PLA2 assay (rhLp-PLA2, PED6 assay); assay type: biochemical
T2 sequence (Q13093 22-441): T1 sequence (Q13093 22-441)
Excerpt: (1) Recombinant Human Lp-PLA2 Assay (rhLp-PLA2) (Also Referred to as “PED6” Assay)
N-((6-(2,4-dinitrophenyl)amino)-hexanoyl)-2-(4,4-difluoro-5,7-dimethyl-4-bora-3a,4a-diaza-s-indacene-3-pentanoyl)-1-hexadecanoyl-sn-glycero-3-phosphoethanolamine, triethylammonium salt (PED6) is a commercially available fluorescently-labeled phospholipid, which is commercially available from Invitrogene and Molecular Probes. There is a quenching para-nitro phenyl (PNP) group in the sn3 position and a Bodipy fluorescein (FL) group in the sn2 position. Upon cleavage with Lp-PLA2, the Bodipy FL group is liberated and then may result in an increase in fluorescence. Inhibitors of Lp-PLA2 therefore prevent this cleavage and no fluorescent increase is observed.
The PED6 assay was run as an unquenched 10 μL assay. The source plate containing the compounds to be tested was prepared by making 1:3 (by volume) serial dilution of the compounds within DMSO on 384-well microplate. Then, 0.01 μL of the compounds on compound source plate were transferred into 384 well Greiner 784076 (black) plates using ECHO liquid dispenser. 5 μL of recombinant human Lp-PLA2 enzyme (4 nM (or 110 pM) rhLp-PLA2 in assay buffer of 50 mM HEPES, pH 7.4, 150 mM NaCl, 1 mM CHAPS) was added to each well of the plate. Plates were centrifuged for 10 sec at 500 rpm. After 30 minutes preincubation, 5 μL of substrate (4 μM (or 5 μM) PED6 [from 5 mM DMSO stock] in assay buffer of 50 mM HEPES, pH 7.4, 150 mM NaCl, 1 mM CHAPS) was added to 384 well Greiner 784076 (black) plates. Plates were centrifuged for 10 sec at 500 rpm. The plate was covered to protect it from light and incubated for 20 min at room temperature. The plates were read for fluorescence intensity at ex: 480/em: 540 using ViewLux microplate imager for Envision spectrofluroimeters. pIC50 data, curve and QC analysis was conducted by using XL fit module in Excel.

[2] = read-out: pIC50 values in the recombinant human Lp-PLA2 assay (converted)
[3] = read-out: rhLp-PLA2 (PED6 assay) (pIC50) (converted)

Row | IC50 (Lp-PLA2 in human plasma) [nM] | IC50 [1, 2] [nM] | IC50 [1, 3] [nM] | Structure (SMILES)
1 | ≤ 100 | ≤ 1 | – | CC1CCn2c(cc(OCc3ccc(Oc4ccc(C(F)(F)F)nc4)c(F)c3)nc2=O)N1 (stereo not shown) [E1, 8-((3-fluoro-4-((6-(trifluoromethyl)pyridin-3-yl)oxy)benzyl)oxy)-2-methyl-3,4-dihydro-1H-pyrimido[1,6-a]pyrimidin-6(2H)-one]
2 | ≤ 100 | ≤ 1 | 0.126 | CC1CCn2c(cc(OCc3ccc(Oc4ccc(C(F)(F)F)cc4)c(C#N)c3)nc2=O)N1 (stereo not shown) [E2, 5-(((2-methyl-6-oxo-2,3,4,6-tetrahydro-1H-pyrimido[1,6-a]pyrimidin-8-yl)oxy)methyl)-2-(4-(trifluoromethyl)phenoxy)benzonitrile]
3 | ≤ 100 | ≤ 1 | – | CC1CCn2c(cc(OCc3ccc(Oc4ccc(F)c(F)c4)c(F)c3)nc2=O)N1 (stereo not shown) [E3, 8-((4-(3,4-difluorophenoxy)-3-fluorobenzyl)oxy)-2-methyl-3,4-dihydro-1H-pyrimido[1,6-a]pyrimidin-6(2H)-one]
4 | ≤ 100 | – | 3.16 | CC1CCn2c(cc(OCc3ccc(F)c(F)c3)nc2=O)N1 (stereo not shown) [E4, 8-((3,4-difluorobenzyl)oxy)-2-methyl-3,4-dihydro-1H-pyrimido[1,6-a]pyrimidin-6(2H)-one]
5 | ≤ 100 | ≤ 1 | – | CC1CCn2c(cc(OCc3ccc(Oc4ccc(Cl)c(F)c4)c(C#N)c3)nc2=O)N1 (stereo not shown) [E6, 2-(4-chloro-3-fluorophenoxy)-5-(((2-methyl-6-oxo-2,3,4,6-tetrahydro-1H-pyrimido[1,6-a]pyrimidin-8-yl)oxy)methyl)benzonitrile]
6 | ≤ 100 | ≤ 1 | – | CC1CCn2c(cc(OCc3ccc(F)c(F)c3)nc2=O)N1C (stereo not shown) [E7, 8-((3,4-difluorobenzyl)oxy)-1,2-dimethyl-3,4-dihydro-1H-pyrimido[1,6-a]pyrimidin-6(2H)-one]
7 | ≤ 100 | ≤ 1 | 0.398 | CC1CCn2c(cc(OCc3cc(F)c(F)c(F)c3)nc2=O)N1C (stereo not shown) [E8, 1,2-dimethyl-8-((3,4,5-trifluorobenzyl)oxy)-3,4-dihydro-1H-pyrimido[1,6-a]pyrimidin-6(2H)-one]
8 | ≤ 100 | ≤ 1 | – | C[C@@H]1CCn2c(cc(OCc3ccc(F)c(F)c3)nc2=O)N1 [E28, (R)-8-((3,4-difluorobenzyl)oxy)-2-methyl-3,4-dihydro-1H-pyrimido[1,6-a]pyrimidin-6(2H)-one]
9 | ≤ 100 | – | 1.26 | C[C@@H]1CCn2c(cc(OCc3cc(F)c(F)c(F)c3)nc2=O)N1 [E29, (R)-2-methyl-8-((3,4,5-trifluorobenzyl)oxy)-3,4-dihydro-1H-pyrimido[1,6-a]pyrimidin-6(2H)-one]
10 | ≤ 100 | ≤ 1 | – | C[C@H]1CCn2c(cc(OCc3cc(F)c(F)c(F)c3)nc2=O)N1C [E35, (S)-1,2-dimethyl-8-((3,4,5-trifluorobenzyl)oxy)-3,4-dihydro-1H-pyrimido[1,6-a]pyrimidin-6(2H)-one]
11 | ≤ 100 | ≤ 1 | – | C[C@H]1CCn2c(cc(OCc3ccc(F)c(F)c3)nc2=O)N1C [E37, (S)-8-((3,4-difluorobenzyl)oxy)-1,2-dimethyl-3,4-dihydro-1H-pyrimido[1,6-a]pyrimidin-6(2H)-one]
12 | ≤ 10 | ≤ 1 | 0.126 | C[C@H]1CCn2c(cc(OCc3cc(F)c(Oc4ccc(C(F)(F)F)nc4)c(F)c3)nc2=O)N1C [E46, (S)-8-((3,5-difluoro-4-((6-(trifluoromethyl)pyridin-3-yl)oxy)benzyl)oxy)-1,2-dimethyl-3,4-dihydro-1H-pyrimido[1,6-a]pyrimidin-6(2H)-one]
13 | ≤ 100 | ≤ 1 | – | CN1c2cc(OCc3cc(F)c(F)c(F)c3)nc(=O)n2CCC1(C)C [E54, 1,2,2-trimethyl-8-((3,4,5-trifluorobenzyl)oxy)-3,4-dihydro-1H-pyrimido[1,6-a]pyrimidin-6(2H)-one]
14 | ≤ 10 | ≤ 1 | 0.398 | CCN1c2cc(OCc3cc(F)c(F)c(F)c3)nc(=O)n2CC[C@@H]1C [E56, (S)-1-ethyl-2-methyl-8-((3,4,5-trifluorobenzyl)oxy)-3,4-dihydro-1H-pyrimido[1,6-a]pyrimidin-6(2H)-one]
15 | ≤ 10 | – | 3.98 | C[C@H]1CCn2c(cc(OCc3cc(F)c(Oc4cccc(C(F)(F)F)c4)c(F)c3)nc2=O)N1C [E62, (S)-8-((3,5-difluoro-4-(3-(trifluoromethyl)phenoxy)benzyl)oxy)-1,2-dimethyl-3,4-dihydro-1H-pyrimido[1,6-a]pyrimidin-6(2H)-one]
16 | ≤ 100 | ≤ 1 | – | [2H]C([2H])(Oc1cc2n(c(=O)n1)CCC(C)(C)N2C)c1cc(F)c(F)cc1F [E71, 8-(dideutero(2,4,5-trifluorophenyl)methoxy)-1,2,2-trimethyl-3,4-dihydro-1H-pyrimido[1,6-a]pyrimidin-6(2H)-one]
17 | ≤ 100 | ≤ 1 | – | [2H]C([2H])(Oc1cc2n(c(=O)n1)CCC(C)(C)N2C)c1cccc(F)c1F [E73, 8-((2,3-difluorophenyl)dideuteromethoxy)-1,2,2-trimethyl-3,4-dihydro-1H-pyrimido[1,6-a]pyrimidin-6(2H)-one]
18 | ≤ 100 | ≤ 1 | – | [2H]C([2H])(Oc1cc2n(c(=O)n1)CCC(C)(C)N2C)c1cc(F)cc(F)c1 [E75, 8-((3,5-difluorophenyl)dideuteromethoxy)-1,2,2-trimethyl-3,4-dihydro-1H-pyrimido[1,6-a]pyrimidin-6(2H)-one]
19 | ≤ 100 | ≤ 1 | – | C[C@@H]1CCn2c(cc(OCc3ccc(Oc4ccc(Cl)c(F)c4)c(C#N)c3)nc2=O)N1C [E76, (R)-2-(4-chloro-3-fluorophenoxy)-5-(((1,2-dimethyl-6-oxo-2,3,4,6-tetrahydro-1H-pyrimido[1,6-a]pyrimidin-8-yl)oxy)methyl)benzonitrile]
20 | ≤ 10 | ≤ 1 | – | C[C@@H]1CCn2c(cc(OCc3cc(F)c(Oc4cccc(C(F)(F)F)c4)c(F)c3)nc2=O)N1C [E77, (R)-8-((3,5-difluoro-4-(3-(trifluoromethyl)phenoxy)benzyl)oxy)-1,2-dimethyl-3,4-dihydro-1H-pyrimido[1,6-a]pyrimidin-6(2H)-one]
21 | ≤ 100 | ≤ 1 | – | C[C@@H]1CCn2c(cc(OCc3ccc(Oc4ccc(C(F)(F)F)cc4)c(C#N)c3)nc2=O)N1C [E78]
22 | ≤ 100 | ≤ 1 | – | C[C@@H]1CCn2c(cc(OCc3ccc(Oc4ccc(F)c(Cl)c4)c(C#N)c3)nc2=O)N1C [E79, (R)-2-(3-chloro-4-fluorophenoxy)-5-(((1,2-dimethyl-6-oxo-2,3,4,6-tetrahydro-1H-pyrimido[1,6-a]pyrimidin-8-yl)oxy)methyl)benzonitrile]
23 | – | ≤ 1 | – | C[C@H]1CCn2c(cc(OCc3ccc(Oc4cc(F)cc(F)c4)cc3)nc2=O)N1C [E141, (S)-8-((4-(3,5-difluorophenoxy)benzyl)oxy)-1,2-dimethyl-3,4-dihydro-1H-pyrimido[1,6-a]pyrimidin-6(2H)-one]
